Laboratory results as given in ChEMBL document CHEMBL1121723 (J Med Chem, 1981).

Legend:
[1] = target: Thromboxane-A synthase (Oryctolagus cuniculus); test: Inhibitory activity against rabbit thromboxane synthetase
[2] = test system: Thromboxane-A synthase (Oryctolagus cuniculus); test: Compound was tested for its inhibitory activity against Thromboxane synthetase at 25 nM
[3] = test system: Thromboxane-A synthase (Oryctolagus cuniculus); test: Compound was tested for its inhibitory activity against Thromboxane synthetase; conditions: concentration not given here

O=C(O)/C=C/c1ccc(OCCn2ccnc2)cc1
IC50 [1]: 250 nM

c1cn(CCCCCCCn2ccnc2)cn1
inhibition [2]: 13.4% | IC50 [1]: 2000 nM

CSCCCCCCCCn1ccnc1
inhibition [3]: 11.4%

CC(C)(CC/C=C/C=C/C(=O)O)n1ccnc1
IC50 [1]: 450 nM

O=C(O)COc1ccccc1Cn1ccnc1
IC50 [1]: 210 nM

O=C(O)C(CCCCCCn1ccnc1)C(=O)O
IC50 [1]: 550 nM

CC(C)(Oc1ccc(Cn2ccnc2)cc1)C(=O)O
IC50 [1]: 25 nM

O=C(O)CCCCCCc1ncc[nH]1
IC50 [1]: 20000 nM

C[S+]([O-])CCCCCCCCn1ccnc1 (stereo not given)
inhibition [2]: 9% | IC50 [1]: 3300 nM

O=C(O)COc1ccc(Cn2ccnc2)cc1
IC50 [1]: 40 nM

O=C(O)c1ccc(CCCn2ccnc2)cc1
IC50 [1]: 5 nM

CC(C)(CCCC#CCn1ccnc1)C(=O)O
IC50 [1]: 9 nM

O=S(=O)(O)CCCCCCn1ccnc1
inhibition [3]: 8.8%

O=C(CCCCCCCn1ccnc1)c1ccccc1
IC50 [1]: 134 nM

O=C(O)CCCc1ccc(-n2ccnc2)cc1
IC50 [1]: 120 nM

CC(Oc1ccc(Cn2ccnc2)cc1)C(=O)O (stereo not given)
IC50 [1]: 38 nM

CC(=O)CCCCCCCn1ccnc1
IC50 [1]: > 1000 nM

NC(CCCCCCn1ccnc1)C(=O)O (stereo not given)
IC50 [1]: > 1000 nM

O=C(O)CCCCCCc1c[nH]cn1
IC50 [1]: 20000 nM

SCCCCCCCCn1ccnc1
inhibition [3]: 17.5%

O=C(O)CCCc1ccc(Cn2ccnc2)cc1
IC50 [1]: 1200 nM

Cc1nccn1CCCCCCC(=O)O
IC50 [1]: > 1000 nM

O=C(O)C(O)CCCCCCn1ccnc1 (stereo not given)
IC50 [1]: 140 nM

O=C(O)Cc1ccc(CCn2ccnc2)cc1
IC50 [1]: 1500 nM

O=C(O)/C=C/c1cccc(Cn2ccnc2)c1
IC50 [1]: 32 nM

O=C(O)C(CO)CCCCCCn1ccnc1 (stereo not given)
IC50 [1]: 250 nM

N#CCCCCCCCn1ccnc1
inhibition [3]: 0%

O=C(O)c1ccc(/C=C/Cn2ccnc2)cc1
IC50 [1]: 44 nM
